# Test results from patent US6806230B1, “Pyrimidine derivatives and herbicides containing them” (Kumiai Chemical Industry Co., Ltd., priority 1999, dated 2004).
# Columns and labels:
# Assay type in all cases: in vivo
# barnyard grass (Eo) [1] = test: Test Example 4: selectivity for a crop plant by flooded paddy field treatment; set-up: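 0-5 growth inhibition grade; 5 = over 90%; 4 = 70-90%; 3 = 50-70%; 2 = 30-50%; 1 = 10-30%; 0 = under 10%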; conditions: barnyard grass, dose 25 gai/10a, 21st day after treatment, index per Table 44
# How it was run: (§1)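 Flooded paddy pots, 3 cm water; weeds sown from seed, rice transplanted at 2nd-leaf stage. Day after: wettable powder diluted in water, applied dropwise to water surface, 25 g a.i./10 a. Greenhouse; herbicidal effect rated at day 21.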
# rice (Or) = test: as above; set-up: scale not given here; conditions: rice transplanted at second leaf stage, dose 25 gai/10a, 21st day after treatment, index per Table 44
# How it was run: as §1
# monochoria (Mo) [2] = test: as above; set-up: scale not given here; conditions: monochoria, dose 25 gai/10a, 21st day after treatment, index per Table 44
# How it was run: as §1
# barnyard grass (Ec) [3] = test: Test Example 3: herbicidal effects by foliage treatment in upland field; set-up: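 0-5 growth inhibition grade; 5 = over 90%; 4 = 70-90%; 3 = 50-70%; 2 = 30-50%; 1 = 10-30%; 0 = under 10%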; conditions: dose 100 g active ingredient per 10 ares, examined on the 14th day after treatment
# How it was run: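 Barnyard grass and green foxtail were grown in upland soil for 2 weeks in a greenhouse. A water-diluted wettable powder was sprayed over the foliage at 100 l per 10 ares, giving 100 g active ingredient per 10 ares. Herbicidal effect was scored on day 14 after treatment.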
# monochoria (Mo) [4] = test: Test Example 1: herbicidal effects by flooded paddy field treatment; set-up: herbicidal effects, Mo (monochoria):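 0-5 growth inhibition grade; 5 = over 90%; 4 = 70-90%; 3 = 50-70%; 2 = 30-50%; 1 = 10-30%; 0 = under 10%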; conditions: dose 100 g active ingredient per 10 ares, examined on the 21st day after treatment, standards of Table 44
# How it was run: (§2)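 Puddled paddy soil in pots, seeds sown, 3 cm flood. Day after sowing: wettable powder diluted in water, applied dropwise to water surface, 100 g a.i./10 ares. Greenhouse; visual herbicidal rating at day 21 post-treatment.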
# barnyard grass (Ec) [5] = test: Test Example 2: herbicidal effects by upland soil treatment; set-up: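 0-5 growth inhibition grade; 5 = over 90%; 4 = 70-90%; 3 = 50-70%; 2 = 30-50%; 1 = 10-30%; 0 = under 10%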; conditions: dose 100 g active ingredient per 10 ares, examined on the 21st day after treatment
# How it was run: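 Pre-emergence test: barnyard grass and green foxtail sown in upland soil, then soil surface sprayed with wettable-powder formulation at 100 g active ingredient per 10 ares (100 l per 10 ares). Grown in greenhouse; herbicidal effect scored on a rating scale 21 days after treatment.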
# barnyard grass (Eo) [6] = test: Test Example 1: herbicidal effects by flooded paddy field treatment; set-up: herbicidal effects, Eo (barnyard grass):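 0-5 growth inhibition grade; 5 = over 90%; 4 = 70-90%; 3 = 50-70%; 2 = 30-50%; 1 = 10-30%; 0 = under 10%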; conditions: dose 100 g active ingredient per 10 ares, examined on the 21st day after treatment, standards of Table 44
# How it was run: as §2
SMILES,Eo (herbicidal effect index) (barnyard grass (Eo) [1]),Or (herbicidal effect index on crop) (rice (Or)),Mo (herbicidal effect index) (monochoria (Mo) [2]),"Ec (herbicidal effects, index) (barnyard grass (Ec) [3])","herbicidal effects, Mo (monochoria) (monochoria (Mo) [4])","Ec (herbicidal effects, index) (barnyard grass (Ec) [5])","herbicidal effects, Eo (barnyard grass) (barnyard grass (Eo) [6])"
COc1ccccc1C(c1cncnc1C(F)(F)F)N(C)C(=O)Cc1ccc(F)cc1 (racemic) [1-489],5,1,5,4,5,5,5
CCOC(OCC)C(c1cncnc1C(C)C)N(C)C(=O)Cc1ccc(F)cc1 (racemic) [1-455],5,1,5,4,5,5,5
CC(=O)c1ncncc1C(C(C)C)N(C)C(=O)Cc1ccc(F)cc1 (racemic) [1-527],5,1,5,4,5,5,5
CC(C)C(c1cncnc1C(F)(F)F)N(C)C(=O)Cc1ccc(Cl)s1 (racemic) [2-25],5,1,5,5,5,5,5
CC(C)C(c1cncnc1C#N)N(C)C(=O)Cc1ccc(Cl)cc1 (racemic) [1-506],5,1,5,4,5,5,5
C#CCN(C(=O)Cc1ccccc1)C(CCC)c1cncnc1CC (racemic) [1-606],5,1,5,4,5,5,5
COCc1ncncc1C(C(C)C)N(C)C(=O)C(C)c1ccc(Cl)cc1 (mixture of isomers) [1-591],5,1,5,4,5,5,5
CC(C)C(c1cncnc1C#N)N(C)C(=O)Cc1ccc(F)cc1 (racemic) [1-505],5,0,5,5,5,5,5
CSC(C)C(c1cncnc1C(F)(F)F)N(C)C(=O)Cc1ccc(F)cc1 (mixture of isomers) [1-416],5,1,5,5,5,5,5
CCC(C)C(c1cncnc1C(F)(F)F)N(C)C(=O)Cc1ccc(Cl)s1 (mixture of isomers) [2-57],5,1,5,5,5,5,5
CN(C(=O)Cc1ccc(F)cc1)C(c1cncnc1C1(C)CC1)C1(C)CC1 (racemic) [1-473],5,1,5,5,5,5,5
CCc1ncncc1C(C(C)C)N(C)C(=O)Cc1ccc(Cl)s1 (racemic) [2-75],5,1,5,5,5,5,5
CCc1ncncc1C(N(C)C(=O)Cc1ccc(Cl)cc1)C(C)(C)C (racemic) [1-566],5,1,5,4,5,5,5
